Results taken from patent publication US20250213478A1, “CATIONIC LIPID HAVING DISULFIDE BOND, LIPID MEMBRANE STRUCTURE INCLUDING SAME, NUCLEIC ACID INTRODUCTION AGENT AND PHARMACEUTICAL COMPOSITION CONTAINING ANY ONE OF SAME, METHOD FOR INTRODUCING NUCLEIC ACID INTO CELL OR TARGET CELL, AND METHOD FOR PRODUCING CELLULAR PHARMACEUTICAL” (NOF Corporation, priority 2022, published 2025).

Assays:
[1] = Measurement of Liposomal pKa of LNP (TNS fluorescence); assay type: physicochemical; conditions: LNP without nucleic acid, cationic lipid:DOPC:Chol=52.5:7.5:40 + about 1.5 mol DMG-PEG2k; pH at which relative TNS fluorescence intensity was 50%
Procedure: Lipid nanoparticles (LNP) without containing nucleic acid were used for the evaluation of Liposomal pKa.
(§1) A 10 mM ethanol solution of cationic lipid, a 5 mM ethanol solution of DOPC, and a 10 mM ethanol solution of Chol were mixed at desired ratio (cationic lipid:DOPC:Chol=52.5:7.5:40 (molar ratio)) in an Eppendorf tube to achieve the total lipid amount of 720 nmol. To the obtained mixture was further added DMG-PEG2k (2 mM ethanol solution) in an amount of about 1.5 mol with respect to the total amount 100 mol of cationic lipid, DOPC, and Chol, and then ethanol was added to prepare an ethanol solution of the lipid (total amount: 360 μL).
(§2) An acidic malic acid buffer (20 mM, pH 3.0) (1080 μL) containing NaCl at a final concentration of 30 mM and an ethanol solution (360 μL) of lipid were each weighed in a syringe. Using an ultra high-speed nanomedicament producing apparatus NanoAssmblr (manufactured by Precision NanoSystems), LNP was prepared under the conditions of addition rate of acidic buffer solution: 3 mL/min, addition rate of ethanol solution of lipid: 1 mL/min, and syringe holder temperature: 25° C., and collected in a 15 mL tube. MES buffer (pH 6.5) (3000 μL) was added to the 15 mL tube, the obtained mixture was transferred to Amicon Ultra 4, and ultrafiltration was performed under centrifugation conditions (25° C., 1000 g, 6 min) to concentrate the mixture to about 100 μL. The obtained concentrate was diluted with PBS to 4 mL, and the mixture was concentrated again under centrifugation conditions (25° C., 1000 g, 6 min), and this operation was performed twice. The obtained concentrate was diluted with PBS to a lipid concentration of 0.5 mM to give a dispersion containing LNP.
20 mM Citrate buffer, sodium phosphate buffer, and tris HCl buffer, each containing NaCl at a final concentration of 150 mM and adjusted to various pHs within the range of pH 3.0 to 10.0, were prepared. TNS (manufactured by Sigma) was diluted with ultrapure water to 0.6 mM. TNS solution (2 μL), dispersions (12 μL) containing LNP prepared in [Experimental Example 1], 1., and buffers adjusted to various pHs (186 μL) were added to a black 96 well plate. The plate was protected from light and shaken at 400 rpm for 10 min. The fluorescence intensity (excitation: 321 nm/emission: 447 nm) was measured using a plate reader (manufactured by TECAN). The relative fluorescence intensity was calculated as a percentage, with the maximum value of the fluorescence intensity in each LNP being 100% and the minimum value being 0%. Furthermore, the pH at which the relative fluorescence intensity was 50% was taken as Liposomal pKa. In Comparative Example, the cationic lipid described in the aforementioned Table 3 were used.

BALB/c mouse = assay: Evaluation of in vivo gene expression (luciferase mRNA-encapsulating LNP, IVIS of isolated organs); conditions: for relative value based on Comparative Example (amount of luminescence in spleen): relative to O-Ph-P4C2 LNP = 1.00; for amount of luminescence in each organ: heart / amount of luminescence in each organ: kidney / amount of luminescence in each organ: liver / amount of luminescence in each organ: lung / amount of luminescence in each organ: spleen: tail vein, mRNA 0.05 mg/kg, 4.5 hr + 15 min after administration; for amount of luminescence in each organ: spleen: spleen (Table 7)
Procedure: (§3) LNP encapsulating mRNA that expresses luciferase (cationic lipid:DOPC:Chol:DMG-PEG2k=55:5:40:1 (molar ratio)) was prepared by the method described in [Experimental Example 2], 1.
The prepared each mRNA-encapsulating LNP dispersion was administered from the tail vein of BALB/c mouse (male, 5-week-old). The dose of mRNA was set to 0.05 mg per 1 kg body weight of the mouse, and the dose of the mRNA-encapsulating LNP dispersion was set to 10 μL per 1 g body weight of the mouse. After 4.5 hr from the administration of the mRNA-encapsulating LNP dispersion, a PBS solution of D-luciferin potassium was administered into the abdominal cavity of the mouse. The dose of D-luciferin potassium was set to 3 mg per mouse, and the dose of the PBS solution of D-luciferin potassium was set to 200 μL per mouse. After 15 min from the administration of the PBS solution of D-luciferin potassium, the mouse was euthanized, and the liver, spleen, kidney, heart, and lung were isolated. The luminescence in each organ was quantified using an in vivo imaging system (IVIS) with an exposure of 10 sec. The amount of luminescence in each organ was quantified by image analysis using Live Imaging software attached to IVIS. The amount of luminescence (photons/sec) was calculated from the acquired image and used as an index of gene expression activity. “E+0a” (a: integer) indicated in Table 7 and Table 8 means “10^a”. For example, “1.0E+02” means “1.0×10^2”. In Comparative Example, the cationic lipid described in the aforementioned Table 3 were used.

HeLa cells = assay: Evaluation of in vitro gene expression in HeLa cell (luciferase mRNA-encapsulating LNP); assay type: cell-based, human; conditions: for cumulative luciferase luminescence intensity over 24 hr: luciferase mRNA 0.4 μg per dish, LNP cationic lipid:DOPC:Chol:DMG-PEG2k=55:5:40:1; for gene expression activity compared to Comparative Example: result in words
Procedure: as §3
HeLa cells, which are human cervical cancer cells, were seeded in a 3.5 cm dish at 5.0×10^4 cells/2 mL/Dish 24 hours before transfection. After 24 hours, the medium was exchanged with a culture medium (D-MEM) containing 0.1 mM D-luciferin. Prepared mRNA-encapsulating LNP was diluted with PBS such that the concentration of mRNA was about 8 μg/mL. The diluted mRNA-encapsulating LNP solution (about 50 μL, mRNA: 0.4 μg) was added to the 3.5 cm dish and set in an incubator luminometer KronosDio. The luminescence intensity of luciferase was measured for 2 min every one hour. The cumulative luciferase luminescence intensity for 24 hr was calculated from the obtained time change of expression. For example, “1.0E+06” means “1.0×10^6”. In Comparative Example, the cationic lipid described in the aforementioned Table 3 were used.

[2] = Particle size, PdI and zeta potential of mRNA-encapsulating LNPs (dynamic light scattering); assay type: physicochemical; conditions: mRNA-encapsulating LNP, cationic lipid:DOPC:Chol=55:5:40 + about 1 mol DMG-PEG2k; for PdI / particle size: dynamic light scattering; for zeta potential: physiological pH
Procedure: as §1, with “lipid:DOPC:Chol=55:5:40” for “lipid:DOPC:Chol=52.5:7.5:40”, “1” for “1.5”
An acidic buffer solution (total amount: 1080 μL) of nucleic acid was prepared by weighing 7.2 μg of mRNA solution (0.6 mg/mL) in a 5 mL tube and adding acidic malate buffer (20 mM, pH 3.0) containing NaCl at a final concentration of 30 mM.
as §2, with “buffer solution of nucleic” for “malic”, “acid” for “acid buffer (20 mM, pH 3.0) (1080 μL) containing NaCl at a final concentration of 30 mM”, “solution” for “solution (360 μL)”, “solution of nucleic acid:” for “solution:”, “2” for “0.5”
The particle size, PdI (Polydispersity Index), and zeta potential of the mRNA-encapsulating LNP prepared by the method of the above-mentioned 1 were measured by a dynamic light scattering method. In Comparative Example, the cationic lipid described in the aforementioned Table 3 were used.

SMILES: CCCCCCCCCCCCCCC(CCCCCCCCCCCCCC)C(=O)Oc1ccc(CC(=O)OCCSSCCOC(=O)CCCN(C)C)cc1 [Example 7]
- pKa [1]: 7.8
- relative value based on Comparative Example (amount of luminescence in spleen) (BALB/c mouse): 0.37
- amount of luminescence in each organ: heart (BALB/c mouse): 6.86E+05 photons/sec
- amount of luminescence in each organ: kidney (BALB/c mouse): 6.35E+05 photons/sec
- amount of luminescence in each organ: liver (BALB/c mouse): 1.23E+06 photons/sec
- amount of luminescence in each organ: lung (BALB/c mouse): 8.28E+05 photons/sec
- amount of luminescence in each organ: spleen (BALB/c mouse): 4.03E+06 photons/sec
- cumulative luciferase luminescence intensity over 24 hr (HeLa cells): 2.13E+08 RLU
- gene expression activity compared to Comparative Example (HeLa cells): superior gene expression activity
- PdI [2]: 0.077
- particle size [2]: 92 nm
- zeta potential [2]: 6.8 mV

SMILES: CCCCCCCCCCCCCCCCC(CCCCCCCCCCCCCCCC)C(=O)Oc1ccc(CC(=O)OCCSSCCOC(=O)C(C)CN(C)C)cc1 (stereo not shown) [Example 13]
- pKa [1]: 6.3
- relative value based on Comparative Example (amount of luminescence in spleen) (BALB/c mouse): 0.19
- amount of luminescence in each organ: heart (BALB/c mouse): 1.00E+06 photons/sec
- amount of luminescence in each organ: kidney (BALB/c mouse): 8.00E+05 photons/sec
- amount of luminescence in each organ: liver (BALB/c mouse): 5.00E+07 photons/sec
- amount of luminescence in each organ: lung (BALB/c mouse): 8.67E+05 photons/sec
- amount of luminescence in each organ: spleen (BALB/c mouse): 2.00E+06 photons/sec
- cumulative luciferase luminescence intensity over 24 hr (HeLa cells): 1.44E+05 RLU
- PdI [2]: 0.086
- particle size [2]: 94 nm
- zeta potential [2]: −10.2 mV

SMILES: CCCCCCCCCCCCCCCCC(CCCCCCCCCCCCCCCC)C(=O)Oc1ccc(CC(=O)OCCSSCCOC(=O)NCCN(C)C)cc1 [Example 21]
- pKa [1]: 7.9
- relative value based on Comparative Example (amount of luminescence in spleen) (BALB/c mouse): 0.05
- amount of luminescence in each organ: heart (BALB/c mouse): 3.41E+05 photons/sec
- amount of luminescence in each organ: kidney (BALB/c mouse): 5.83E+05 photons/sec
- amount of luminescence in each organ: liver (BALB/c mouse): 3.68E+05 photons/sec
- amount of luminescence in each organ: lung (BALB/c mouse): 6.51E+05 photons/sec
- amount of luminescence in each organ: spleen (BALB/c mouse): 5.86E+05 photons/sec
- cumulative luciferase luminescence intensity over 24 hr (HeLa cells): 1.22E+08 RLU
- gene expression activity compared to Comparative Example (HeLa cells): superior gene expression activity
- PdI [2]: 0.118
- particle size [2]: 116 nm
- zeta potential [2]: 6.4 mV

SMILES: CCCCCCCCCCCCCCCCC(CCCCCCCCCCCCCCCC)C(=O)Oc1ccc(CC(=O)OCCSSCCOC(=O)NCCN(CC)CC)cc1 [Example 22]
- pKa [1]: 7.5
- relative value based on Comparative Example (amount of luminescence in spleen) (BALB/c mouse): 0.29
- amount of luminescence in each organ: heart (BALB/c mouse): 3.91E+05 photons/sec
- amount of luminescence in each organ: kidney (BALB/c mouse): 4.45E+05 photons/sec
- amount of luminescence in each organ: liver (BALB/c mouse): 8.31E+06 photons/sec
- amount of luminescence in each organ: lung (BALB/c mouse): 5.20E+05 photons/sec
- amount of luminescence in each organ: spleen (BALB/c mouse): 3.16E+06 photons/sec
- cumulative luciferase luminescence intensity over 24 hr (HeLa cells): 2.38E+08 RLU
- gene expression activity compared to Comparative Example (HeLa cells): superior gene expression activity
- PdI [2]: 0.090
- particle size [2]: 96 nm
- zeta potential [2]: 4.7 mV

SMILES: CCCCCCCCCCCCCCCCC(CCCCCCCCCCCCCCCC)C(=O)Oc1ccc(CC(=O)OCCSSCCOC(=O)NCCCN(C)C)cc1 [Example 23]
- pKa [1]: 8.3
- relative value based on Comparative Example (amount of luminescence in spleen) (BALB/c mouse): 0.04
- amount of luminescence in each organ: kidney (BALB/c mouse): 1.53E+05 photons/sec
- amount of luminescence in each organ: liver (BALB/c mouse): 2.36E+05 photons/sec
- amount of luminescence in each organ: lung (BALB/c mouse): 5.02E+05 photons/sec
- amount of luminescence in each organ: spleen (BALB/c mouse): 4.45E+05 photons/sec
- cumulative luciferase luminescence intensity over 24 hr (HeLa cells): 2.05E+07 RLU
- gene expression activity compared to Comparative Example (HeLa cells): superior gene expression activity
- PdI [2]: 0.160
- particle size [2]: 94 nm
- zeta potential [2]: 13.8 mV

SMILES: CCCCCCCCCCCCCCCCC(CCCCCCCCCCCCCCCC)C(=O)Oc1ccc(CC(=O)OCCSSCCOC(=O)N(C)CCCN(C)C)cc1 [Example 24]
- pKa [1]: 8.2
- relative value based on Comparative Example (amount of luminescence in spleen) (BALB/c mouse): 0.05
- amount of luminescence in each organ: heart (BALB/c mouse): 4.78E+05 photons/sec
- amount of luminescence in each organ: kidney (BALB/c mouse): 4.84E+05 photons/sec
- amount of luminescence in each organ: liver (BALB/c mouse): 5.08E+05 photons/sec
- amount of luminescence in each organ: lung (BALB/c mouse): 5.58E+05 photons/sec
- amount of luminescence in each organ: spleen (BALB/c mouse): 5.09E+05 photons/sec
- cumulative luciferase luminescence intensity over 24 hr (HeLa cells): 6.22E+07 RLU
- gene expression activity compared to Comparative Example (HeLa cells): superior gene expression activity
- PdI [2]: 0.109
- particle size [2]: 96 nm
- zeta potential [2]: 12.2 mV
